The target in assay [1] is T1, BTK (Homo sapiens (Human), UniProt Q06187). In words: Mass spectrometry for BTK (covalent modification of intact protein). The assay is classed as binding. Particulars: 1 hr, 10x fold excess of compound. The procedure: Intact BTK was incubated for 1 hr at a 10× fold excess of I-7 to protein. Aliquots (2 μl) of the samples were diluted with 10 μl of 0.1% TFA prior to micro C4 ZipTipping directly onto the MALDI target using Sinapinic acid as the desorption matrix (10 mg/ml in 0.1% TFA:Acetonitrile 20:80).

The target in a further assay is JAK3 (Homo sapiens (Human), UniProt P52333). In words: Omnia assay for potency assessment against the active form of JAK3. It counts as biochemical. The note with it: read-out: JAK3 Inhibition. The procedure: Briefly, 10× stocks of EGFR-WT (PV3872) from Invitrogen and EGFR-T790M/L858R (40350) from BPS Bioscience, San Diego, Calif., 1.13×ATP (AS001A) and appropriate Tyr-Sox conjugated peptide substrates (KCZ1001) were prepared in 1× kinase reaction buffer consisting of 20 mM Tris, pH 7.5, 5 mM MgCl2, 1 mM EGTA, 5 mM β-glycerophosphate, 5% glycerol (10× stock, KB002A) and 0.2 mM DTT (DS001A).
The Omnia Assay Protocol for potency assessment against JAK3 was performed in a substantially similar manner as that described in Example 251 above except that the modified JAK3-optimized reagent conditions were:
[JAK3]=5 nM, [ATP]=5 μM, [Y12-Sox]=5 μM (ATP KMapp˜5 μM).

Assay [2] has as its system B cell lymphoma cell lines. In words: B cell lymphoma proliferation assay. It counts as cell-based.
The target in assay [3] is T1, BTK. In words: Washout experiment with Ramos cells. It counts as cell-based. The note with it: 100 nM compound 1 hour, then washout. The procedure: Ramos cells were serum starved for one hour in RPMI media +1% glutamine at 37° C. After starvation, Ramos cells were treated with 100 nM compound diluted in serum free RPMI media for 1 hour. After compound treatment, the media was removed and cells were washed with compound-free media. Subsequently, Ramos cells were washed every 2 hours and resuspended in fresh compound-free media. Cells were collected at specified timepoints, treated with 1 ug anti-human IgM (Southern Biotech cat #2022-01) for 10 minutes on ice to induce BCR signaling and then washed in PBS. Ramos cells were then lysed in Cell Extraction Buffer (Invitrogen FNN0011) supplemented with Roche complete protease inhibitor tablets (Roche 11697498001) and phosphatase inhibitors (Roche 04 906 837 001) and 18 ug total protein lysate was loaded in each lane. Inhibition of BTK kinase activity was assayed by measuring its substrate (PLCγ2) phosphorylation by western blot with phospho-specific antibodies from Cell Signaling Technologies cat #3871. The results of this experiment with compounds I-2, I-4 and I-7 are depicted in FIGS. 1, 2 and 3.

The next assay deals with EGFR-WT (Homo sapiens (Human), UniProt P00533). In words: Omnia assay for potency assessment against EGFR (WT). The assay is classed as biochemical. The note with it: wild-type EGFR; read-out: EGFR Wild Type Inhibition.
In assay [4] the target is T1, BTK. In words: Omnia assay for potency assessment against BTK. The note with it: [BTK]=5 nm; read-out: BTK Inhibition. It counts as biochemical. On the procedure: Omnia Assay Protocol for Potency Assessment Against BTK
The modified BTK-optimized reagent conditions for the above protocol are:
[BTK]=5 nm, [ATP]=40 mM, [Y5-Sox]=10 mM (ATP KMapp˜36 mM).

Another assay deals with Human naïve B cells. In words: Human primary B cell proliferation assay. The assay is classed as cell-based. The note with it: 5 μg/ml α-IgM 72 hours, 3H-thymidine incorporation. The procedure:
Human naïve B cells were purified from 100 mL whole blood using a MACS purification kit designed to isolate CD19+, IgD+ cells by negative selection. Purified naïve B cells were resuspended in RPMI complete and stimulated with 5 μg/ml α-IgM for 72 hours. ^3H-Thymidine was included in the culture media for the final 16 h, cells were harvested and ^3H incorporation measured. Inhibition of B cell proliferation correlates with inhibition of BTK substrate phosphorylation after α-IgM stimulation.
(In general: Uptake of a labelled nucleoside into DNA is a usual measure of proliferation.)

The mark [5] stands for this setting: Homo sapiens, DOHH-2, DOHH2 B cell lymphoma cell line, read-out: EC50 (μM) DOHH2.
Setting [6] is: Homo sapiens, WSUDLCL2, WSU-DLCL2 B cell lymphoma cell line, read-out: EC50 (μM) WSU-DLCL2.
[7] abbreviates: DHL4 B cell lymphoma cell line, read-out: EC50 (μM) DHL4.

Read-outs that look alike come from different tables or passages of the source.

Consider 20 compounds from patent US10596172B2 (Celgene CAR LLC, priority 2008, dated 2020).

Chain of JAK3 (P52333 whole entry): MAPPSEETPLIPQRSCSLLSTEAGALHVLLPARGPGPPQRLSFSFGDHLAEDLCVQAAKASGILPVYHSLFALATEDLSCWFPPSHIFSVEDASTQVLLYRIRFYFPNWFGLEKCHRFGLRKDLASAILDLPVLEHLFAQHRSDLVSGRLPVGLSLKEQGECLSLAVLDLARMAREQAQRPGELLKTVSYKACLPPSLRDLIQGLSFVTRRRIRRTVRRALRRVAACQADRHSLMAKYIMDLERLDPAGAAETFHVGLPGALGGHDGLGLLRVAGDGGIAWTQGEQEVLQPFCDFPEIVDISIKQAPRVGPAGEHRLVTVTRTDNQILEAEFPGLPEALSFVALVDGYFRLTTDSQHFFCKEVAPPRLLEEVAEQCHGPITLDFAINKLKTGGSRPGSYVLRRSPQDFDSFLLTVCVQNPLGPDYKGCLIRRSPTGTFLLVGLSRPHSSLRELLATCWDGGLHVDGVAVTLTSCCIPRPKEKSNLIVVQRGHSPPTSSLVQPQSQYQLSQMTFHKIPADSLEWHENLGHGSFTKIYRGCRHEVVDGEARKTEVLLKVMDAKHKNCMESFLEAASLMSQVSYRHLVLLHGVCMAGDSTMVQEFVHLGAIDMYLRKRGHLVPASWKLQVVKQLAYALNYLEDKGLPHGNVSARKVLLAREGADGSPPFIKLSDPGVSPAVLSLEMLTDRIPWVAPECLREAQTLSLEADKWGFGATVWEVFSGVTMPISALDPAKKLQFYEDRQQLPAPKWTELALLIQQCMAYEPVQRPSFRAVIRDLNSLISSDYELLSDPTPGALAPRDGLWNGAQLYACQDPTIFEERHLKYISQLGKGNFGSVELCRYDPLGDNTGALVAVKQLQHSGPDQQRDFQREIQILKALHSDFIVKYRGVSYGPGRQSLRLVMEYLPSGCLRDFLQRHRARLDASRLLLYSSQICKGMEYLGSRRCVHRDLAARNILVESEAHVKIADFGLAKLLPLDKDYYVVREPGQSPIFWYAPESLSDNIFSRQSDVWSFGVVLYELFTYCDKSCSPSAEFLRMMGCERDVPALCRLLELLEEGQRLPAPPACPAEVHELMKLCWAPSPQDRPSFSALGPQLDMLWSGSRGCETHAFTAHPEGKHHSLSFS
T1 sequence (Q06187 whole entry): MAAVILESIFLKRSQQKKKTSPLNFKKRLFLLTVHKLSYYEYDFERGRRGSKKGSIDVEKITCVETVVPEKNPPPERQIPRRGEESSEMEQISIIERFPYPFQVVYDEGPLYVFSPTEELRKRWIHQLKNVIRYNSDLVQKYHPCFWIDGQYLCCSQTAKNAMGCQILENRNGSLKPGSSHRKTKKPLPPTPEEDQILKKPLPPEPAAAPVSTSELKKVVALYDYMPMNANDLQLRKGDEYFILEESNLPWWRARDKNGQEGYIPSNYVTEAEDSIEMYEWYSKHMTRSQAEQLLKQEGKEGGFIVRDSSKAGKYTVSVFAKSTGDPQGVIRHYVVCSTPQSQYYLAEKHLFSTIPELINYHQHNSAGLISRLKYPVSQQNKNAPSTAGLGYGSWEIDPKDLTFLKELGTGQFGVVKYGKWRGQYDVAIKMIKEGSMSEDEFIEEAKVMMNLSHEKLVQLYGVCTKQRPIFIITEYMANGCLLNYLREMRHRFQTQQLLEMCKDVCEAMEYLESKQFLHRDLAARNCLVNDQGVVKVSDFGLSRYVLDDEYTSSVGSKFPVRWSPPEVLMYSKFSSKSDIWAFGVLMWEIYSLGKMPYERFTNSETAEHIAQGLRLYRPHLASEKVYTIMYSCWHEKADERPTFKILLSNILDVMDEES
Chain of EGFR-WT (P00533 25-1210): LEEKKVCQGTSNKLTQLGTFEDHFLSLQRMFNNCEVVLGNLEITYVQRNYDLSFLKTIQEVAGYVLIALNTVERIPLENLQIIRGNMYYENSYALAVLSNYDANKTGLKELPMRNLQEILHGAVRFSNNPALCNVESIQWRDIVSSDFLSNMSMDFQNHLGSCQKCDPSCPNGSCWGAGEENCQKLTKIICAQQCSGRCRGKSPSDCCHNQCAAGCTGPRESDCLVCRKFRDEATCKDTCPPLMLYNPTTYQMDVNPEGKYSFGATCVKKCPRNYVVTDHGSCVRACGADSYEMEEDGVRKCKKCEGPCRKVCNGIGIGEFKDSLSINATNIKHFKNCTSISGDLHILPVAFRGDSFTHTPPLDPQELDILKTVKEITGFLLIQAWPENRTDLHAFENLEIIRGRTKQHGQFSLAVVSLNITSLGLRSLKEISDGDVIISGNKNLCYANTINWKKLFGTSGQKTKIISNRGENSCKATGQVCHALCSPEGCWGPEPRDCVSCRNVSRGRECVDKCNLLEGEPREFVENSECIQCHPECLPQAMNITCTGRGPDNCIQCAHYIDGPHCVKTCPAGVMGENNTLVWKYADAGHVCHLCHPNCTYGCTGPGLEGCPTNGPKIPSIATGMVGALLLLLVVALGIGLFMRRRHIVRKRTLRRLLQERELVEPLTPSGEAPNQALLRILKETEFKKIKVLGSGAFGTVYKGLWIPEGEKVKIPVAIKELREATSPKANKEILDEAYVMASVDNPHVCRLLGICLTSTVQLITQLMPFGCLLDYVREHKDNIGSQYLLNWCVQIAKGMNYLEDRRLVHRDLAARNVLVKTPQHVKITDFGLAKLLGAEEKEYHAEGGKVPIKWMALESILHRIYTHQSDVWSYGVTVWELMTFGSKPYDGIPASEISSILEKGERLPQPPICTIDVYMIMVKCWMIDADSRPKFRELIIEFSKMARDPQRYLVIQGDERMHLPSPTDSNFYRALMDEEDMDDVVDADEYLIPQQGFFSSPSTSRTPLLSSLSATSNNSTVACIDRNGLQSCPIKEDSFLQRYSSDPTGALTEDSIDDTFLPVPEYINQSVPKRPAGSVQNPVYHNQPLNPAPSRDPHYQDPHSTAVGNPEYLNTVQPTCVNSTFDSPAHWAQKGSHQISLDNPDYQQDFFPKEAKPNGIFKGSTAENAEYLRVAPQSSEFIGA

In the case of “2-((4-(5-fluoro-2-(3-trifluoromethoxyphenylamino)pyrimidin-4-ylamino)phenyl)(hydroxy)methyl)acrylonitrile [Compound I-163]”, the “covalent modification of BTK by mass spectrometry” value (“covalent modification of BTK” below) on BTK [1] is on record as “completely modify”.

The EC50 is the concentration that produces a half-maximal response. As for `C=CC(=O)Nc1cccc(Nc2nc(Nc3ccccc3)ncc2F)c1` [Compound I-28, N-(3-(5-fluoro-2-(phenylamino)pyrimidin-4-ylamino)phenyl)acrylamide], on JAK3, the IC50 is less than 10 nM. The EC50 in assay [2] (setting [5]) and in assay [2] (setting [6]) was 1 to 10 µM in each case. Moreover, the “BTK Inhibition Type” value on BTK [3] was “irreversible”.

With `C#CCOc1cccc(Nc2ncc(C)c(Nc3cccc(NC(=O)C=C)c3)n2)c1` [Compound I-35, N-(3-(5-methyl-2-(3-(prop-2-ynyloxy)phenylamino)pyrimidin-4-ylamino)phenyl) acrylamide], at JAK3, the IC50 is less than 10 nM. Further, the EC50 in assay [2] (setting [5]) and in assay [2] (setting [6]) was 1 to 10 µM in each case. Besides, the “BTK Inhibition Type” value at BTK [3] is listed as “irreversible”.

In the case of `Cc1cnc(Nc2ccccc2)nc1Nc1cccc(NC(=O)/C=C/CN(C)C)c1` [Compound I-38, (E)-4-(dimethylamino)-N-(3-(5-methyl-2-(phenylamino)pyrimidin-4-ylamino)phenyl)but-2-enamide], the IC50 at JAK3 lay within 10 to 100 nM. The EC50 in assay [2] (setting [5]) and in assay [2] (setting [6]) was 1 to 10 µM each time. Further, on BTK [3], the “BTK Inhibition Type” value is recorded as “reversible”.

Take `C=C(C#N)C(O)c1cccc(Nc2nc(Nc3ccc(OCCOC)cc3)ncc2F)c1` (stereo not shown) [Compound I-71, 2-((3-(5-fluoro-2-(4-(2-methoxyethoxy)phenylamino)pyrimidin-4-ylamino)phenyl)(hydroxy)methyl)acrylonitrile]: the “covalent modification of BTK” value at BTK [1] was “completely modify”.

Turning to `C=CC(=O)N1CCOc2ccc(Nc3ncc(F)c(Nc4cccc(Cl)c4)n3)cc21` [Compound I-149, 1-(6-(4-(3-chlorophenylamino)-5-fluoropyrimidin-2-ylamino)-2H-benzo[b][1,4]oxazin-4(3H)-yl)prop-2-en-1-one], the EC50 in assay [2] (setting [5]) was 1 to 10 µM. For the same compound, the “covalent modification of BTK” value on BTK [1] is “completely modify”.

Take `C=C(C#N)C(O)c1ccc(Nc2nc(Nc3ccccc3)ncc2F)cc1` (stereo not shown) [Compound I-161, 2-((4-(5-fluoro-2-(phenylamino)pyrimidin-4-ylamino)phenyl)(hydroxy)methyl)acrylonitrile]: the EC50 in assay [2] (setting [7]) and in assay [2] (setting [5]) was 1 to 10 µM in each case. For the same compound, at BTK [1], the “covalent modification of BTK” value is “completely modify”.

Turning to `C=CC(=O)N1CCC[C@@H](Nc2nc(Nc3cccc(OC)c3)ncc2F)C1` [Compound I-195, (R)-1-(3-(5-fluoro-2-(3-methoxyphenylamino)pyrimidin-4-ylamino)piperidin-1-yl)prop-2-en-1-one], the concentration giving a half-maximal response (EC50) is more than 10 µM in assay [2] (setting [7]), 1 to 10 µM in assay [2] (setting [5]) and more than 10 µM in assay [2] (setting [6]). Moreover, at BTK [1], the “covalent modification of BTK” value is “completely modify”.

Consider `CC(C)=CC(=O)c1cccc(Nc2nc(Nc3cccc(OCCN(C)C)c3)ncc2F)c1` [Compound I-207], for which the values for the EC50 in assay [2] (setting [5]) and in assay [2] (setting [6]) were 0.1 to 1 µM and 1 to 10 µM, respectively. Besides, the “covalent modification of BTK” value on BTK [1] is listed as “completely modify”.

As for `C=CC(=O)N(C)Cc1ccc(Nc2nc(Nc3ccccc3)ncc2C)cc1` [Compound I-219, N-methyl-N-(4-(5-methyl-2-(phenylamino)pyrimidin-4-ylamino)benzyl)acrylamide], on BTK [1], the “covalent modification of BTK” value is reported as “completely modify”.

As for `C=CC(=O)Nc1cccc(Oc2nc(Nc3ccccc3)ncc2F)c1` [Compound I-228, N-(3-(5-fluoro-2-(phenylamino)pyrimidin-4-yloxy)phenyl)acrylamide], the EC50 in assay [2] (setting [5]) and in assay [2] (setting [6]) was more than 10 µM in each case. In addition, the “BTK Inhibition Type” value at BTK [3] is listed as “irreversible”.

Turning to `C=CC(=O)Nc1cccc(Nc2nc(Nc3ccccc3)ncc2C(N)=O)c1` [Compound I-230, 4-(3-acrylamidophenylamino)-2-(phenylamino)pyrimidine-5-carboxamide], the EC50 in assay [2] (setting [5]) and in assay [2] (setting [6]) was 1 to 10 µM throughout. For the same compound, the “BTK Inhibition Type” value at BTK [3] is reported as “irreversible”.

For `C=CC(=O)Nc1cccc(Nc2nc(Nc3cccc(OC)c3)ncc2C(F)(F)F)c1` [Compound I-242, N-(3-(5-trifluoromethyl-2-(3-methoxyphenylamino)pyrimidin-4-ylamino)phenyl)acrylamide], the IC50 on JAK3 was less than 10 nM. For the same compound, the EC50 in assay [2] (setting [5]) and in assay [2] (setting [6]) was 1 to 10 µM in each case. Further, at BTK [3], the “BTK Inhibition Type” value is recorded as “irreversible”.

Turning to `C=CC(=O)Nc1cccc(Nc2nc(Nc3ccc(OC)nc3)ncc2F)c1` [Compound I-243, N-(3-(5-fluoro-2-(6-methoxypyridin-3-ylamino)pyrimidin-4-ylamino)phenyl)acrylamide], at JAK3, the IC50 was less than 10 nM. The 50% effective concentration (EC50) in assay [2] (setting [5]) and in assay [2] (setting [6]) was 1 to 10 µM each time. On BTK [3], the “BTK Inhibition Type” value is reported as “irreversible”.

For the compound `C=CC(=O)Nc1cccc(Nc2nc(Nc3cccc(OC(F)(F)F)c3)ncc2F)c1` [Compound I-244, N-(3-(5-fluoro-2-(3-(trifluoromethoxy)phenylamino)pyrimidin-4-ylamino)phenyl)acrylamide], at JAK3, the IC50 is less than 10 nM. Also, the EC50 was 1 to 10 µM in assay [2] (setting [7]), 0.1 to 1 µM in assay [2] (setting [5]) and 1 to 10 µM in assay [2] (setting [6]). Moreover, the “covalent modification of BTK” value at BTK [1] is listed as “completely modify”.

For the compound `C=CC(=O)Nc1cccc(Nc2nc(Nc3ccc(F)cc3)ncc2F)c1` [Compound I-247, N-(3-(5-fluoro-2-(4-fluorophenylamino)pyrimidin-4-ylamino)phenyl)acrylamide], the IC50 at JAK3 was less than 10 nM. The EC50 in assay [2] (setting [5]) fell in the range of 0.1 to 1 µM; in assay [2] (setting [6]), 1 to 10 µM. For the same compound, the “BTK Inhibition Type” value on BTK [3] is given as “irreversible”.

For the compound `C=CC(=O)Nc1cccc(Oc2nc(Nc3ccccc3)ncc2C)c1` [Compound I-248, N-(3-(5-methyl-2-(phenylamino)pyrimidin-4-yloxy)phenyl)acrylamide], the IC50 at JAK3 is less than 10 nM. For the same compound, the 50% effective concentration (EC50) in assay [2] (setting [5]) and in assay [2] (setting [6]) was 1 to 10 µM throughout. Moreover, on BTK [3], the “BTK Inhibition Type” value was “irreversible”.

On to `Cc1cccc(Nc2nc(Nc3cccc(NC(=O)/C=C/CN(C)C)c3)ncc2C)c1` [Compound I-360, (E)-4-(dimethylamino)-N-(3-(5-methyl-4-(m-tolylamino)pyrimidin-2-ylamino)phenyl)but-2-enamide], for which the IC50 at JAK3, at EGFR-WT and on BTK [4] was less than 10 nM in each case.

On to `C=CC(=O)Nc1cccc(Nc2ncc(F)c(Nc3cccc(OCCN4CCOCC4)c3)n2)c1` [Compound I-382, N-(3-(5-fluoro-4-(3-(2-morpholinoethoxy)phenylamino)pyrimidin-2-ylamino)phenyl)acrylamide], for which the figures for the IC50 at EGFR-WT and at BTK [4] were 100 to 1000 nM and 10 to 100 nM, respectively.

Turning to `CCC(=O)Nc1cccc(Nc2nc(Nc3ccccc3)ncc2C)c1` [I^R-7, N-(3-(5-methyl-2-(phenylamino)pyrimidin-4-ylamino)phenyl) propionamide], the IC50 on JAK3 fell in the range of 1000 to 10000 nM. For the same compound, the EC50 in the assay on Human naïve B cells is more than 1000 nM.
